According to patent US11655235B2, “Pyrrolidine and piperidine compounds” (YUHAN CORPORATION, priority 2019, dated 2023):

Assays:
[1] = target: T1, Recombinant human FAP (Homo sapiens, UniProt Q12884); assay: FAP inhibition, fluorogenic substrate Z-Gly-Pro-AMC; format: biochemical; conditions: for IC50: 25° C., Z-Gly-Pro-AMC substrate; for inhibition at 1 µM: read-out: hFAP inhibition % at 1 μM
T1 construct: purchased R&D systems
T1 sequence (Q12884 1-760): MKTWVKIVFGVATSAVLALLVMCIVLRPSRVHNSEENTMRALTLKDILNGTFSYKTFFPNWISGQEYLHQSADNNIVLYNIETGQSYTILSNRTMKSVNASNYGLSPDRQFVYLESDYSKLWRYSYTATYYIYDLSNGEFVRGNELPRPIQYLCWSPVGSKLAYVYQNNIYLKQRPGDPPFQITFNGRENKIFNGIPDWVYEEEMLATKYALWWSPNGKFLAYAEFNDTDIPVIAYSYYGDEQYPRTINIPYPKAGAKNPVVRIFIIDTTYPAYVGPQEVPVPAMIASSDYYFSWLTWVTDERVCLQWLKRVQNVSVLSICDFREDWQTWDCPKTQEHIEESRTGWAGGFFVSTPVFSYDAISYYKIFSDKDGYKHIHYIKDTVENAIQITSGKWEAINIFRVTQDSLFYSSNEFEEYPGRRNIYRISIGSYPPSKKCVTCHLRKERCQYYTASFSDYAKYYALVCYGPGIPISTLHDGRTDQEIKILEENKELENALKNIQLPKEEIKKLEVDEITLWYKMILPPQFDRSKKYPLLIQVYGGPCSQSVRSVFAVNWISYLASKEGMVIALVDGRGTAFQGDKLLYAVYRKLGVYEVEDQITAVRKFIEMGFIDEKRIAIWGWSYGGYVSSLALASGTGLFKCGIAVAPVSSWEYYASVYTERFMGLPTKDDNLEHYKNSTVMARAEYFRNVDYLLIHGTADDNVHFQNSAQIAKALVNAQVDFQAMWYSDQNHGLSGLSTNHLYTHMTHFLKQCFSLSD
Method: The compounds according to the present technology were evaluated in terms of the inhibitory effect on the activity of dipeptidyl peptidases including FAP by using a substrate producing fluorescent substances upon enzymatic decomposition. The test was conducted at 25° C. to get a final reaction volume of 100 μL in a 96 black well plate. […] Briefly, the test compounds were dissolved in dimethyl sulfoxide (DMSO) at a concentration of 20 mM and then subjected to serial dilution, thereby creating an 8 point curve. As for the control group, a 6 point curve created by serial dilution of Talabostat in the same buffer solution was used. Fluorescence intensity was measured using a microplate reader (Flexstation3, Molecular Devices) under the wavelength condition exciting at 380 nm and reading the emission at 460 nm. The inhibitory effect of the test compounds was measured as a decrease (%) in the signal rate as compared to the control group without any inhibitor. Data was fixed to a logistic model with four variables and IC50 value was calculated using GraphPad Prism program. Recombinant human FAP (R&D systems) was diluted with 50 mM tris (pH 7.5) buffer comprising 1 M of sodium chloride and 1 mg/ml of bovine serum albumin (BSA) to be 10 ng per final reaction. The test compounds were subjected to serial dilution in a buffer under the condition containing up to 0.1% of DMSO. Z-Gly-Pro-AMC (Bachem) was used as a substrate. By dissolving in DMSO and then diluting in the same buffer, the substrate was added to be […] per final reaction.

[2] = target: DPP4 (Homo sapiens, UniProt P27487); assay: DPP4 inhibition, fluorogenic substrate H-Gly-Pro-AMC; format: biochemical; parameters: purchased R&D Systems; conditions: for inhibition at 1 µM: read-out: hDPP4 inhibition % at 1 μM
Method: The compounds according to the present technology were evaluated in terms of the inhibitory effect on the activity of dipeptidyl peptidases including FAP by using a substrate producing fluorescent substances upon enzymatic decomposition. The test was conducted at 25° C. to get a final reaction volume of 100 μL in a 96 black well plate. […] Briefly, the test compounds were dissolved in dimethyl sulfoxide (DMSO) at a concentration of 20 mM and then subjected to serial dilution, thereby creating an 8 point curve. As for the control group, a 6 point curve created by serial dilution of Talabostat in the same buffer solution was used. Fluorescence intensity was measured using a microplate reader (Flexstation3, Molecular Devices) under the wavelength condition exciting at 380 nm and reading the emission at 460 nm. The inhibitory effect of the test compounds was measured as a decrease (%) in the signal rate as compared to the control group without any inhibitor. Data was fixed to a logistic model with four variables and IC50 value was calculated using GraphPad Prism program. As for recombinant human DPP4 (R&D Systems), 25 mM tris (pH 8.0) buffer as a buffer solution and H-Gly-Pro-AMC (Bachem) as a substrate were used. As for recombinant human DPP7 (R&D Systems), 25 mM MES (pH 6.0) buffer as a buffer solution and Lys-Pro-AMC (Bachem) as a substrate were used. As for recombinant human DPP8 (PBS Bioscience), as a buffer solution, a 10 mM tris (pH 7.4) buffer comprising 10 mM of magnesium chloride and 0.05% of Tween 20, and Z-Ala-Pro-AMC (BPS Bioscience) as a substrate were used. As for recombinant human DPP9 (R&D Systems), a 25 mM tris (pH 8.0) buffer as a buffer solution and H-Gly-Pro-AMC (Bachem) as a substrate were used. As for recombinant human PREP (R&D System), as a buffer solution, a 25 mM tris (pH 7.5) buffer comprising 250 mM sodium chloride and 2.5 mM DTT (Dithiolthreitol), and Z-Gly-Pro-AMC (Bachem) as a substrate were used. The evaluation was made by using 10 ng of DPP4, PDD7, and PREP, 20 ng of DPP8, and 50 ng of DPP9 based on the final reaction. In the evaluation of DPP4, the test compounds were subjected to serial dilution in a buffer under the condition containing up to 0.1% of DMSO. In the evaluation of DPP7, DPP8, DPP9, and PREP, the test compounds were subjected to serial dilution in each buffer under the condition containing up to 0.5% of DMSO.

DPP4, sequence (P27487 whole entry): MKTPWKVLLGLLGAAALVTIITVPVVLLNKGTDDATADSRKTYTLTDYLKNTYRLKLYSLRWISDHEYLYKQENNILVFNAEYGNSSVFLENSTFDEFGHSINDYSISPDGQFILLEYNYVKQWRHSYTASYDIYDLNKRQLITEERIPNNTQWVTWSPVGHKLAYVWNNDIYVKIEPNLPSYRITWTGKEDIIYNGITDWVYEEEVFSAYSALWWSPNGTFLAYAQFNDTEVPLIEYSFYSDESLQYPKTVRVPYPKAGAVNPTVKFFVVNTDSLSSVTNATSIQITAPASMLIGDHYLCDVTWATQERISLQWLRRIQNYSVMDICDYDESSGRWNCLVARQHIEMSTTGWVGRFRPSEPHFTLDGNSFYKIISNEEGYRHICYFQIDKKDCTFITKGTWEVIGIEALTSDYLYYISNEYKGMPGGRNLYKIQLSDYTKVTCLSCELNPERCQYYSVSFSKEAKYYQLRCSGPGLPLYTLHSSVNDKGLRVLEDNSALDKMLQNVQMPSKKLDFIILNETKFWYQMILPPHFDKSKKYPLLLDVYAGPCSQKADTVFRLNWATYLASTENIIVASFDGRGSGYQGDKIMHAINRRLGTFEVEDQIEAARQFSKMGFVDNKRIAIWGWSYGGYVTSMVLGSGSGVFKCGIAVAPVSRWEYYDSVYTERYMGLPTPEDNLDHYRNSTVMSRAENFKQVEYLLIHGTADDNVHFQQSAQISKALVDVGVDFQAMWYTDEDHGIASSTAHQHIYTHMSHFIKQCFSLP

Row | IC50 [1] | inhibition at 1 µM [2] | hDPP4 inhibition % at 1 μM [2] | inhibition at 1 µM [1] | Compound
1 | 31.9 nM | 22.6% | – | – | N#C[C@@H]1CCCN1C(=O)CN1CC[C@H](Oc2nccc3scc(Br)c23)C1 [Example 70, (S)-1-(2-((S)-3-((3-bromothieno[3,2-c]pyridin-4-yl)oxy)pyrrolidin-1-yl)acetyl)pyrrolidine-2-carbonitrile]
2 | 42.6 nM | – | No inhibition** | – | N#C[C@@H]1CCCN1C(=O)CN1CC[C@H](Oc2ccc(Cl)c3ccccc23)C1 [Example 71, (S)-1-(2-((S)-3-((4-chloronaphthalen-1-yl)oxy)pyrrolidin-1-yl)acetyl)pyrrolidine-2-carbonitrile]
3 | 101 nM | 0.8% | – | – | N#C[C@@H]1CCCN1C(=O)CN1CC[C@H](Oc2ccccc2-c2cc[nH]n2)C1 [Example 72, (S)-1-(2-((S)-3-(2-(1H-pyrazol-3-yl)phenoxy)pyrrolidin-1-yl)acetyl)pyrrolidine-2-carbonitrile]
4 | – | 1.2% | – | 97.1% | N#C[C@@H]1CCCN1C(=O)CN1CC[C@H](Oc2cccc3c(Cl)ncnc23)C1 [Example 73, (S)-1-(2-((S)-3-((4-chloroquinazolin-8-yl)oxy)pyrrolidin-1-yl)acetyl)pyrrolidine-2-carbonitrile]
5 | – | – | No inhibition** | 92.3% | N#C[C@@H]1CCCN1C(=O)CN1CC[C@H](Oc2ccc3ncnc(Cl)c3c2)C1 [Example 74, (S)-1-(2-((S)-3-((4-chloroquinazolin-6-yl)oxy)pyrrolidin-1-yl)acetyl)pyrrolidine-2-carbonitrile]
6 | 53.6 nM | – | No inhibition** | – | N#C[C@@H]1CCCN1C(=O)CN1CC[C@H](Oc2cccc3c2CCC(=O)N3)C1 [Example 76, (S)-1-(2-((S)-3-((2-oxo-1,2,3,4-tetrahydroquinolin-5-yl)oxy)pyrrolidin-1-yl)acetyl)pyrrolidine-2-carbonitrile]
7 | 82.3 nM | 0.4% | – | – | N#C[C@@H]1CCCN1C(=O)CN1CC[C@H](Oc2ccc3c(c2)CCC(=O)N3)C1 [Example 77, (S)-1-(2-((S)-3-((2-oxo-1,2,3,4-tetrahydroquinolin-6-yl)oxy)pyrrolidin-1-yl)acetyl)pyrrolidine-2-carbonitrile]
8 | 22.5 nM | – | No inhibition** | – | Cc1ccc2cccc(O[C@H]3CCN(CC(=O)N4CCC[C@H]4C#N)C3)c2n1 [Example 78, (S)-1-(2-((S)-3-((2-methylquinolin-8-yl)oxy)pyrrolidin-1-yl)acetyl)pyrrolidine-2-carbonitrile]
9 | 17.9 nM | 4.6% | – | – | N#C[C@@H]1CCCN1C(=O)CN1CC[C@H](Oc2ccnc3cc(Cl)ccc23)C1 [Example 79, (S)-1-(2-((S)-3-((7-chloroquinolin-4-yl)oxy)pyrrolidin-1-yl)acetyl)pyrrolidine-2-carbonitrile]
10 | 20.5 nM | 5.1% | – | – | N#C[C@@H]1CCCN1C(=O)CN1CC[C@H](Oc2ccnc3cc(Br)ccc23)C1 [Example 80, (S)-1-(2-((S)-3-((7-bromoquinolin-4-yl)oxy)pyrrolidin-1-yl)acetyl)pyrrolidine-2-carbonitrile]
11 | – | 6.5% | – | 72.6% | N#C[C@@H]1CCCN1C(=O)CN1CC[C@H](Oc2cccc(-c3ccccc3)c2)C1 [Example 82, (S)-1-(2-((S)-3-([1,1′-biphenyl]-3-yloxy)pyrrolidin-1-yl)acetyl)pyrrolidine-2-carbonitrile]
12 | – | 6.3% | – | 68.1% | N#C[C@@H]1CCCN1C(=O)CN1CC[C@H](Oc2ccc(-c3ccccc3)cc2)C1 [Example 83, (S)-1-(2-((S)-3-([1,1′-biphenyl]-4-yloxy)pyrrolidin-1-yl)acetyl)pyrrolidine-2-carbonitrile]
13 | 19.9 nM | 5.9% | – | – | N#C[C@@H]1CCCN1C(=O)CN1CC[C@H](Oc2ccnc3c(F)c(F)ccc23)C1 [Example 85, (S)-1-(2-((S)-3-((7,8-difluoroquinolin-4-yl)oxy)pyrrolidin-1-yl)acetyl)pyrrolidine-2-carbonitrile]
14 | – | 6.8% | – | 70.7% | COC(=O)C1Cc2ccc(O[C@H]3CCN(CC(=O)N4CCC[C@H]4C#N)C3)cc2O1 (stereo partly drawn) [Example 86, Methyl 6-(((S)-1-(2-((S)-2-cyanopyrrolidin-1-yl)-2-oxoethyl)pyrrolidin-3-yl)oxy)-2,3-dihydrobenzofuran-2-carboxylate]
15 | – | 6.9% | – | 51.9% | N#C[C@@H]1CCCN1C(=O)CN1CC[C@H](Oc2ccc(Oc3ccccc3)cc2)C1 [Example 87, (S)-1-(2-((S)-3-(4-phenoxyphenoxy)pyrrolidin-1-yl)acetyl)pyrrolidine-2-carbonitrile]
16 | – | 6.1% | – | 57.9% | N#C[C@@H]1CCCN1C(=O)CN1CC[C@H](Oc2cccc(Oc3ccccc3)c2)C1 [Example 88, (S)-1-(2-((S)-3-(3-phenoxyphenoxy)pyrrolidin-1-yl)acetyl)pyrrolidine-2-carbonitrile]
17 | – | 7.9% | – | 56.8% | N#C[C@@H]1CCCN1C(=O)CN1CC[C@H](Oc2ccc(Cc3ccccc3)cc2)C1 [Example 89, (S)-1-(2-((S)-3-(4-benzylphenoxy)pyrrolidin-1-yl)acetyl)pyrrolidine-2-carbonitrile]
18 | – | 7.7% | – | 52.9% | N#C[C@@H]1CCCN1C(=O)CN1CC[C@H](Oc2ccccc2Cc2ccccc2)C1 [Example 90, (S)-1-(2-((S)-3-(2-benzylphenoxy)pyrrolidin-1-yl)acetyl)pyrrolidine-2-carbonitrile]
19 | – | 9.1% | – | 59.2% | N#C[C@@H]1CCCN1C(=O)CN1CC[C@H](Oc2cccc(C(=O)c3ccccc3)c2)C1 [Example 91, (S)-1-(2-((S)-3-(3-benzoylphenoxy)pyrrolidin-1-yl)acetyl)pyrrolidine-2-carbonitrile]
20 | – | 10.2% | – | 56.4% | N#C[C@@H]1CCCN1C(=O)CN1CC[C@H](Oc2ccc(C(=O)c3ccccc3)cc2)C1 [Example 92, (S)-1-(2-((S)-3-(4-benzoylphenoxy)pyrrolidin-1-yl)acetyl)pyrrolidine-2-carbonitrile]
